Assay results from US4800199A, “3-[2-thiazoloamino]-8-oxo-7-substituted-5-thia-1-a zabicyclo-[4.2.0]oct-2-ene-2-carboxylic acid and salts thereof and diphenylmethyl esters thereof” (American Cyanamid Company, priority 1986, dated 1989).
Converted amounts (≈) assume the structure as drawn.

Experiments:
Experiment in all cases: In vitro antibacterial activity, Mueller-Hinton agar dilution
Type in all cases: cell-based
[1] = system: Pseudomonas aeruginosa ATCC 27853; conditions: ATCC27853, read-out: Minimal Inhibitory Concentration
Source text: (§1) The results of this test on representative compounds of this invention appear in Table I.

Acinetobacter STFD 79-17 = conditions: STFD7917, read-out: Minimal Inhibitory Concentration
Source text: as §1

[2] = system: Staphylococcus aureus LL No. 27; conditions: LLNO.27, read-out: Minimal Inhibitory Concentration
Source text: as §1

[3] = system: Micrococcus lutea PC 1001; conditions: PC1001, read-out: Minimal Inhibitory Concentration
Source text: as §1

[4] = system: Staphylococcus aureus LL No. 45; conditions: LLNO.45, read-out: Minimal Inhibitory Concentration
Source text: as §1

[5] = system: Mycobacterium smegmatis ATCC 607; conditions: Mycolicibacterium smegmatis, ATCC607, read-out: Minimal Inhibitory Concentration
Source text: as §1

Enterococcus OSU 75-1 = conditions: OSU751, read-out: Minimal Inhibitory Concentration
Source text: as §1

[6] = system: Staphylococcus aureus Smith; conditions: read-out: Minimal Inhibitory Concentration
Source text: as §1

[7] = system: Staphylococcus aureus LL No. 14; conditions: LLNO.14, read-out: Minimal Inhibitory Concentration
Source text: as §1

[8] = system: Streptococcus faecalis ATCC 29212; conditions: Enterococcus faecalis, ATCC29212, read-out: Minimal Inhibitory Concentration
Source text: as §1

[9] = system: Streptococcus mutans ATCC 27352-1; conditions: ATCC27352, read-out: Minimal Inhibitory Concentration
Source text: as §1

Proteus morganii K79-25 = conditions: Morganella morganii, K7925, read-out: Minimal Inhibitory Concentration
Source text: as §1

Enterococcus SM 77-15 = conditions: SM7715, read-out: Minimal Inhibitory Concentration
Source text: as §1

Bacillus cereus LL No. 4 = conditions: LLNO.4, read-out: Minimal Inhibitory Concentration
Source text: as §1

Escherichia coli 311 = conditions: read-out: Minimal Inhibitory Concentration
Source text: as §1

[10] = system: Escherichia coli ATCC 25922; conditions: ATCC25922, read-out: Minimal Inhibitory Concentration
Source text: as §1

[11] = system: Staphylococcus aureus ATCC 25923; conditions: ATCC25923, read-out: Minimal Inhibitory Concentration
Source text: as §1

Serratia Tul 78-15 = conditions: TUL7815, read-out: Minimal Inhibitory Concentration
Source text: as §1

[12] = system: Enterobacter cloacae K79-16; conditions: K7916, read-out: Minimal Inhibitory Concentration
Source text: as §1

Klebsiella pneumoniae AD = conditions: read-out: Minimal Inhibitory Concentration
Source text: as §1

Salmonella QHC 77-3 = conditions: QHC773, read-out: Minimal Inhibitory Concentration
Source text: as §1

[13] = system: Streptococcus sanguis G-9B (a); conditions: read-out: Minimal Inhibitory Concentration
Source text: as §1

Saccharomyces Y 15 = conditions: Y15, read-out: Minimal Inhibitory Concentration
Source text: as §1

[14] = system: Streptococcus mutans BHI (b); conditions: read-out: Minimal Inhibitory Concentration
Source text: as §1

[15] = system: Staphylococcus epidermidis ATCC 12228; conditions: ATCC12228, read-out: Minimal Inhibitory Concentration
Source text: as §1

[16] = system: Citrobacter freundii K81-28; conditions: K8128, read-out: Minimal Inhibitory Concentration
Source text: as §1

Candida albicans CA 300 = conditions: CA300, read-out: Minimal Inhibitory Concentration
Source text: as §1

[17] = system: Pseudomonas aeruginosa 12-4-4; conditions: 1244, read-out: Minimal Inhibitory Concentration
Source text: as §1

[18] = system: Staphylococcus epidermidis CMC 83-56; conditions: CMC8356, read-out: Minimal Inhibitory Concentration
Source text: as §1

[19] = system: Bacillus subtilis ATCC 6633; conditions: ATCC6633, read-out: Minimal Inhibitory Concentration
Source text: as §1

Structure (SMILES)	MIC [1]	MIC (Acinetobacter STFD 79-17)	MIC [2]	MIC [3]	MIC [4]	MIC [5]	MIC (Enterococcus OSU 75-1)	MIC [6]	MIC [7]	MIC [8]	MIC [9]	MIC (Proteus morganii K79-25)	MIC (Enterococcus SM 77-15)	MIC (Bacillus cereus LL No. 4)	MIC (Escherichia coli 311)	MIC [10]	MIC [11]	MIC (Serratia Tul 78-15)	MIC [12]	MIC (Klebsiella pneumoniae AD)	also measured
CC(=O)OCC1=C(C(=O)O)N2C(=O)[C@@H](Nc3nc(-c4ccccc4)cs3)[C@H]2SC1 [Example 3, (6R-trans)-3-[(Acetyloxy)methyl]-8-oxo-7-[(4-phenyl-2-thiazolyl)amino]-5-thia-1-azabicyclo[4.2.0]oct-2-ene-2-carboxylic acid]	> 512 µg/mL	> 512 µg/mL	16 µg/mL (≈ 37.1 µM)	8 µg/mL (≈ 18.5 µM)	4 µg/mL (≈ 9.27 µM)	256 µg/mL (≈ 593 µM)	256 µg/mL (≈ 593 µM)	8 µg/mL (≈ 18.5 µM)	4 µg/mL (≈ 9.27 µM)	256 µg/mL (≈ 593 µM)	8 µg/mL (≈ 18.5 µM)	> 512 µg/mL	256 µg/mL (≈ 593 µM)	128 µg/mL (≈ 297 µM)	> 512 µg/mL	> 512 µg/mL	8 µg/mL (≈ 18.5 µM)	> 512 µg/mL	> 512 µg/mL	> 512 µg/mL	MIC (Salmonella QHC 77-3): > 512 µg/mL; MIC [13]: 1 µg/mL (≈ 2.32 µM); MIC (Saccharomyces Y 15): 256 µg/mL (≈ 593 µM); MIC [14]: 0.5 µg/mL (≈ 1.16 µM); MIC [15]: 16 µg/mL (≈ 37.1 µM); MIC [16]: > 512 µg/mL; MIC (Candida albicans CA 300): > 512 µg/mL; MIC [17]: > 512 µg/mL; MIC [18]: 8 µg/mL (≈ 18.5 µM); MIC [19]: 8 µg/mL (≈ 18.5 µM)
CCOC(=O)c1csc(N[C@@H]2C(=O)N3C(C(=O)O)=C(COC(C)=O)CS[C@H]23)n1 [Example 2]	> 512 µg/mL	> 512 µg/mL	4 µg/mL (≈ 9.36 µM)	4 µg/mL (≈ 9.36 µM)	1 µg/mL (≈ 2.34 µM)	128 µg/mL (≈ 299 µM)	128 µg/mL (≈ 299 µM)	1 µg/mL (≈ 2.34 µM)	1 µg/mL (≈ 2.34 µM)	128 µg/mL (≈ 299 µM)	≤ 0.25 µg/mL	> 512 µg/mL	128 µg/mL (≈ 299 µM)	64 µg/mL (≈ 150 µM)	512 µg/mL (≈ 1200 µM)	> 512 µg/mL	1 µg/mL (≈ 2.34 µM)	> 512 µg/mL	> 512 µg/mL	512 µg/mL (≈ 1200 µM)	MIC (Salmonella QHC 77-3): > 512 µg/mL; MIC [13]: 4 µg/mL (≈ 9.36 µM); MIC (Saccharomyces Y 15): 128 µg/mL (≈ 299 µM); MIC [14]: ≤ 0.25 µg/mL; MIC [15]: 0.5 µg/mL (≈ 1.17 µM); MIC [16]: 512 µg/mL (≈ 1200 µM); MIC (Candida albicans CA 300): > 512 µg/mL; MIC [17]: > 512 µg/mL; MIC [18]: 0.5 µg/mL (≈ 1.17 µM); MIC [19]: 4 µg/mL (≈ 9.36 µM)
